Earlier results, collected in patent publication US20150065426A1, “Testosterone Booster Transdermal Compositions” (Professional Compounding Centers Of America, priority 2013, published 2015).

Tests used:
[1] = men with elevated estradiol / hormone disorders
[2] = after the use of anastrozole for about 7 days

## CC(C)(C#N)c1cc(Cn2cncn2)cc(C(C)(C)C#N)c1 [anastrozole, Anastrozole]
[1]
  estradiol levels: significant decrease
[2]
  increase of natural testosterone levels: ≤ 60%
